# Laboratory results from patent US20080119542A1, “METHODS OF USING ARTEMISININ-LIKE COMPOUNDS TO PREVENT OR DELAY THE APPEARANCE OF CANCER” (UNIVERSITY OF WASHINGTON, priority 2002, published 2008).
# Tests used:
# [1] = test system: mammary tumors; test: Tumor development in DMBA-treated rats given weekly oral intubations of artemisinin; format: in vivo, Female Sprague-Dawley rats; conditions: for Percentage of Animals with Tumors: artemisinin 10 mg/kg weekly oral intubation
# Description: This Example describes a representative method for preventing or slowing the development of cancer in rats exposed to a carcinogen by administering artemisinin by weekly oral intubations.
# Materials and Methods: Female Sprague-Dawley rats were administered a single intragastric dose of the carcinogen 7,12-dimethylbenz[a]anthracene (DMBA; Sigma Chemicals, St Louis, Mo.; 50 mg/kg body weight) suspended in olive oil (Sigma Chemicals, St Louis, Mo.; 25 mg/ml). Animals were randomly assigned to two treatment groups to receive either weekly oral intubations of artemisinin (Holley Pharmaceuticals, Fullerton, Calif.; 10 mg/kg at 10 mg/ml of olive oil) or olive oil (control). Artemisinin treatment began a week after DMBA administration. Animals were palpated for the presence of mammary tumors once weekly. The time and site of detection and size were recorded for each tumor in an animal.
# [2] = test system: mammary tumors; test: Tumor development in DMBA-treated rats given artemisinin mixed in food; format: in vivo, Female rats; conditions: artemisinin 0.05% in food, approximately 10 mg/kg/day
# Description: This Example describes a representative method for preventing or slowing the development of cancer in rats exposed to a carcinogen by providing artemisinin mixed in food.
# Materials and Methods: Female rats were similarly treated with the carcinogen DMBA, as described in EXAMPLE 1. The rats were randomly assigned to two treatment groups. Artemisinin (0.05%) was mixed in the food of one group of animals starting the day immediately after DMBA treatment. Daily intake of artemisinin, based on the amount of food eaten each day, was estimated to be approximately 10 mg/kg/day. The other group of animals (controls) was given regular rat food.
# [3] = cancer patient; oral 50 mg per day, intramuscular 60 mg/day, over 9 months; cited from earlier work
smiles,measurement,setting,value
"C[C@@H]1CC[C@H]2[C@@H](C)C(=O)O[C@@H]3O[C@@]4(C)CC[C@@H]1[C@]32OO4 [Artemisinin, artemisinin]",Percentage of Animals with Tumors,[1]; week 6 after DMBA,0%
same,Percentage of Animals with Tumors,"[1]; week 6 after DMBA, listed as artemisinin",none
same,Percentage of Animals with Tumors,[1]; week 7 after DMBA,9%
same,Percentage of Animals with Tumors,[1]; week 9 after DMBA,9%
same,Percentage of Animals with Tumors,[1]; week 10 after DMBA,9%
same,Percentage of Animals with Tumors,[1]; week 11 after DMBA,9%
same,Percentage of Animals with Tumors,[1]; week 12 after DMBA,27%
same,Percentage of Animals with Tumors,[1]; week 13 after DMBA,45%
same,Percentage of Animals with Tumors,[1]; week 16 after DMBA,45%
same,Percentage of Animals with Tumors,[1]; week 17 after DMBA,45%
same,Percentage of Animals with Tumors,[1]; week 20 after DMBA,54%
same,Percentage of Animals with Tumors,[1]; week 29 after DMBA,64%
same,Percentage of Animals with Tumors,[1]; week 31 after DMBA,64%
same,Percentage of Animals with Tumors,[1]; week 38 after DMBA,64%
same,Appearance of tumors in carcinogen-treated animals,[1]; weekly artemisinin treatment vs olive oil controls,delayed the appearance of tumors
same,Percentage of Animals with Tumors,[2]; week 6 after DMBA,0%
same,Percentage of Animals with Tumors,[2]; week 7 after DMBA,0%
same,Percentage of Animals with Tumors,[2]; week 8 after DMBA,0%
same,Percentage of Animals with Tumors,[2]; week 9 after DMBA,0%
same,Percentage of Animals with Tumors,[2]; week 10 after DMBA,0%
same,Percentage of Animals with Tumors,"[2]; week 10 after DMBA, listed as artemisinin",none
C[C@H]1[C@H](OC(=O)CCC(=O)O)O[C@@H]2O[C@@]3(C)CC[C@H]4[C@H](C)CC[C@@H]1[C@@]24OO3 [artesunate],Adverse side effects,[3],No apparent adverse side effects
